Read-outs that look alike come from different tables or passages of the source.
How the values were obtained:
[1] = test system: contact sensitivity response to 2,4-dinitrofluorobenzene (DNFB); assay: Contact sensitivity response to 2,4-dinitrofluorobenzene (DNFB) in mice; type: in vivo, Balb/c female mice
Method: This is an antigen-specific T-cell mediated inflammatory response that represents delayed-type hypersensitivity reactions seen in both humans and other mammals.
Balb/c female mice (.perspectiveto.20g, Charles River) were sensitized on the shaved abdomen with 25 μl of 0.5% 2,4-dinitrofluorobenzene ([…], Eastman Kodak Co.) in a vehicle of 4:1 acetone:olive oil on days 0 and 1. Mice were ear challenged with 20 μl of 0.2% DNFB in a vehicle of 4:1 acetone:olive oil on day 5. A constant area of the ears was measured immediately before challenge and 24 hours later with an engineer's micrometer. Ear swelling was expressed as the difference in ear thickness before and after challenge in units of 10^-4 inches±SEM. Percent suppression was calculated as: [formula] […] Negative controls were not sensitized on days 0 and 1 but were ear challenged on day 5. Ten mice were used per group.

[2] = test system: human mixed lymphocyte reaction; assay: Human mixed lymphocyte reaction (3H-thymidine incorporation); type: cell-based; details: Table 4, human PBMC of two donors, 6 days
Text: Contact sensitivity to DNFB has teen extensively studied and characterized in the mouse to determine the regulatory mechanisms involved in cell mediated immune responses (Claman, et al., Immunol Rev 50:105, 1980). This is an antigen-specific T-cell mediated inflammatory response that represents delayed-type hypersensitivity reactions seen in both humans and other mammals. The primary use of the human mixed lymphocyte reaction is for the determination of transplantation compatibility between the donor (graft) and the recipient (Park and Good, p. 71. In Yunis, et al., Tissue typing and organ transplantation. 1973 Academic Press Inc., N.Y.).
Blood was obtained by venipuncture from two nonrelated human donors. Peripheral blood mononuclear cells (PBMC) were isolated from these samples by using the Leuco Prep procedure (Becton-Dickinson). PBMC were washed twice in phosphate buffered saline (without calcium and magnesium) and the separate cell isolations were adjusted to the appropriate concentrations in media (RPMI 1640) supplemented with 10% human AB serum and […] gentamicin. Cells from donor A (2×10^5) were incubated with cells from donor B (2×10^5) in 96 well round bottom microliter plates at 37° C., 5% CO2 for 6 days. Eighteen hours prior to harvesting cells from the plates, all wells were pulsed with 1 μCi of ^3 H-thymidine. Cells from the plates were harvested on day 6 and ^3 H-thymidine incorporation was determined using a scintillation counter.

[3] = Mus musculus, po, 24 h, Table 3, ear swelling, 20.0 mg/kg oral, read-out: % Suppression

With `Cc1c(-c2ccc(Sc3ccccc3)cc2)nc2ccc(Cl)cc2c1C(=O)O` [Example 7] the inhibition in vivo at 20 mg/kg [1, 3] was 14.4% and the “Ear Swelling (units ± SEM), increase in ear thickness from day 5 to day 6” value (“Ear Swelling (units ± SEM), increase” below) ([1]; Table 3, 20.0 mg/kg oral) was 62.95 ± 3.40 10^-4 inches.
`Cc1c(-c2ccc(Sc3ccccc3)cc2)nc2ccc(Cl)cc2c1C(=O)O` [Example 8] was tested, and the “Ear Swelling (units ± SEM), increase” value ([1]; Table 3, 20.0 mg/kg oral) was 63.25 ± 3.58 10^-4 inches and the “% Suppression” value ([1]; Table 3, ear swelling, 20.0 mg/kg oral, 20 mg/kg) was 13.98%.
In the case of `O=C(O)c1cc(-c2ccc(-c3ccccc3)cc2)nc2ccc(F)cc12` [Example 9], the inhibition in vivo at 20 mg/kg [1, 3] is reported as 43.3% and the “Ear Swelling (units ± SEM), increase” value ([1]; Table 3, 20.0 mg/kg oral) is reported as 42.60 ± 2.68 10^-4 inches.
With `Cc1c(-c2ccc([S+]([O-])c3ccccc3)cc2)nc2ccc(F)cc2c1C(=O)O` (stereo not shown) [Example 10] the inhibition in vivo at 20 mg/kg [1, 3] was 22.4% and the “Ear Swelling (units ± SEM), increase” value ([1]; Table 3, 20.0 mg/kg oral) was 57.28 ± 2.36 10^-4 inches.
For `COc1c(-c2ccc(-c3ccccc3)cc2)nc2ccc(F)cc2c1C(=O)O` [Example 11], the inhibition in vivo at 20 mg/kg [1, 3] was 74.1% and the “Ear Swelling (units ± SEM), increase” value ([1]; Table 3, 20.0 mg/kg oral) was 20.85 ± 2.53 10^-4 inches.
With `Cc1c(-c2ccc(-c3ccc(O)cc3)cc2)nc2ccc(Cl)cc2c1C(=O)O` [Example 12] the inhibition in vivo at 20 mg/kg [1, 3] was 26.3% and the “Ear Swelling (units ± SEM), increase” value ([1]; Table 3, 20.0 mg/kg oral) was 54.58 ± 3.21 10^-4 inches.
Compound `COc1ccc2c(c1)c(CC(=O)O)c(C)n2C(=O)c1ccc(Cl)cc1` [Indomethacin, reference compound] has an IC50 [2] greater than 1000 nM.
In the case of `CN(Cc1cnc2nc(N)nc(N)c2n1)c1ccc(C(=O)N[C@@H](CCC(=O)O)C(=O)O)cc1` [Methotrexate, reference compound], the inhibition in vivo at 0.4 mg/kg ([1]; Mus musculus, po, 24 h, Table 2, ear swelling, 0.4 mg/kg oral, read-out: % Suppression) is reported as 3.83%, the inhibition in vivo at 2 mg/kg ([1]; Mus musculus, po, 24 h, Table 2, ear swelling, 2.0 mg/kg oral, read-out: % Suppression) is reported as 18.1% and the inhibition in vivo at 10 mg/kg ([1]; Mus musculus, po, 24 h, Table 2, ear swelling, 10.0 mg/kg oral, read-out: % Suppression) is reported as 51.8%. The inhibition in vivo at 20 mg/kg ([1]; Mus musculus, po, 24 h, Table 2, ear swelling, 20.0 mg/kg oral, read-out: % Suppression) was 63.6%, the inhibition in vivo at 20 mg/kg [1, 3] was 79.7% and the ED50 ([1]; Mus musculus, Table 2, suppression of ear swelling, oral, days -2 through 6, read-out: ED50) was 9 mg/kg. The “Ear Swelling (units ± SEM), increase” value ([1]; Table 2, 0.4 mg/kg oral) was 71.30 ± 2.96 10^-4 inches, the “Ear Swelling (units ± SEM), increase” value ([1]; Table 2, 2.0 mg/kg oral) was 60.80 ± 1.99 10^-4 inches and the “Ear Swelling (units ± SEM), increase” value ([1]; Table 2, 10.0 mg/kg oral) was 36.10 ± 3.23 10^-4 inches. For the same compound, the “Ear Swelling (units ± SEM), increase” value ([1]; Table 2, 20.0 mg/kg oral) was 27.45 ± 4.99 10^-4 inches, the “Ear Swelling (units ± SEM), increase” value ([1]; Table 3, 20.0 mg/kg oral) was 16.94 ± 2.10 10^-4 inches and the IC50 [2] was 2.5 nM.
